Experimental data taken from patent EP0521799A1, “Ophthalmic compositions” (YISSUM RESEARCH DEVELOPMENT COMPANY OF THE HEBREW …, priority 1991, dated 1993).

Assays:
[1] = system: S.aureus; assay: Preservative efficacy in emulsion (Table 2); type: cell-based; details: for Number of Organisms in 1ml Emulsion: S.aureus
Method: (§1) To each 20ml of emulsion, an inoculum of a microorganismal suspension (at an initial concentration of about 1-3 x 10⁸ cells per ml) was added under sterile conditions to a final concentration of about 1-3 x 10⁶ cells per ml of emulsion. Immediately upon inoculation and at 24, 48 hours, 7, 14 and 28 days thereafter, samples of 1 ml were withdrawn and eluted in a pH 7.0 sodium chloride buffer (B.P. 88 neutralizing buffer, DIFCO Laboratories, Detroit, MI, USA) to neutralize the preservatives. After about 20-30 minutes of exposure of sample to the neutralizing buffer, samples were filtered through a 0.45µm cellulose acetate filter (TE, Schueller & Schleicher). The filter and the holder were washed with 3 portions of 100 ml of sodium chloride peptone solution and then the filter was transferred to a petri dish with PCPL media which consisted of the following ingredients (per 400 ml): 20g tryptone, 1.0g yeast extract, 0.4g. dextrose, 6.0 bactoagar, 0.4g lethicin and 8.0ml Tween 80.
(§2) At 24 hours or at 2 to 5 days after the withdrawal of the sample, the number of the microorganism was counted on the petri dishes. (In order to achieve a proper count of the microorganism dilutions of the initially withdrawn sample to obtain a dilution factor of 1:10-1:50,000, were made).
(§3) Two blank emulsions without a preservative served as control for the two different neutralizing buffers.

[2] = system: C. albicans; assay: Preservative efficacy in emulsion (Table 2); type: cell-based
Method: as §1, §2, §3

[3] = system: E. coli; assay: Preservative efficacy in emulsion (Table 2); type: cell-based
Method: as §1, §2, §3

[4] = system: P. aeruginosa; assay: Preservative efficacy in emulsion (Table 2); type: cell-based
Method: as §1, §2, §3

[5] = system: A. niger; assay: Preservative efficacy in emulsion (Table 2); type: cell-based
Method: as §1, §2, §3

[6] = system: ocularly hypertensive rabbits; assay: IOP after topical Δ⁸-THC composition, hypertensive rabbits; type: in vivo, albino rabbits; details: composition of the invention comprising 0.4% Δ⁸-THC
Method: (§4) The intraocular pressure (IOP) was measured by a Digilab pneumotonometer model 30R. For IOP measurement, one drop of the local anaesthetic benoxinate HCl (Fischer Pharmaceuticals, Israel) diluted 1:3 in sterile solution was instilled into each eye. In order to ensure reproducibility of IOP readings, the animals were accustomed to the experimental procedure by repeated handling.
(§5) A composition in accordance with the invention comprising 0.4% Δ⁸-THC was administered to the right eyes of albino rabbits. The administration of the composition and IOP measurements were performed as described above under (A).
(§6) Both ocularly hypertensive and normo-tensive albino rabbits were used in the study.

[7] = system: ocularly normo-tensive rabbits; assay: IOP after topical Δ⁸-THC composition, normo-tensive rabbits; type: in vivo, albino rabbits; details: composition of the invention comprising 0.4% Δ⁸-THC
Method: as §4, §5, §6

[8] = system: microorganisms; assay: Preservative efficacy of single preservatives, overall judgement; type: cell-based
Method: as §1, §2, §3
The same experiment was also carried out with Chlorbutol alone instead of Thimerosal.

[9] = system: Albino rabbits; assay: Intraocular pressure (IOP) after a single topical dose of HU-211 emulsion; type: in vivo; details: for decrease of IOP in the contralateral eye: untreated left eye, about 4 hours after administration
Method: Albino rabbits of both sexes weighing 2.25 kg were used. All rabbits chosen had no signs of ocular pathology.
as §4
Basal IOP was measured for 2 days prior to drug application by measuring the IOP 5 times over an 11 hrs. period (starting at 8am and ending at 7pm). Each time IOP was measured twice and an average of two readings was obtained.
IOP was measured at the time of drug application and at 1.5, 4, 6 and 11 hrs. thereafter.
Two groups of animals were tested, each by a different experimenter. The first group which consisted of 20 rabbits is referred to herein as " Group I" and the second group which consisted of 10 rabbits is referred to herein as "Group II". The two groups received, however, exactly the same treatment.
The treatment consisted of the application of a single dose of 50µl of a 0.1% (w/v) of HU-211 preparation in accordance with the invention into the lower cul-de-sac of the right eye of each rabbit. The eye was then kept open for a few more seconds, while excessive liquid spilling over the eyelid was wiped off. The left eye was not treated.

[10] = HU-211 concentration in emulsions on storage; type: physicochemical; details: in emulsion
Method: The HU-211 concentration was measured at different temperatures after various storage times and the results are shown in Fig. 11.

[11] = Oh (immediately upon inoculation)
[12] = single preservative in emulsion
[13] = treated eye, single dose 50µl of 0.1% (w/v) HU-211

Benzalkonium chloride [BZK]
Number of Organisms in 1ml Emulsion ([1]; 24h): 10^7
Number of Organisms in 1ml Emulsion ([1]; 48h): 10^7
Number of Organisms in 1ml Emulsion [1, 11]: 7.3 x 10^6
Number of Organisms in 1ml Emulsion ([2]; 24h): >600
Number of Organisms in 1ml Emulsion ([2]; 48h): 433
Number of Organisms in 1ml Emulsion [2, 11]: 1.0 x 10^6
Number of Organisms in 1ml Emulsion ([3]; 24h): 10^7
Number of Organisms in 1ml Emulsion ([3]; 48h): 5 x 10^6
Number of Organisms in 1ml Emulsion [3, 11]: 2.6 x 10^6
Number of Organisms in 1ml Emulsion ([4]; 24h): 10^7
Number of Organisms in 1ml Emulsion ([4]; 48h): 10^7
Number of Organisms in 1ml Emulsion [4, 11]: 4.2 x 10^6
Number of Organisms in 1ml Emulsion ([5]; 24h): 29
Number of Organisms in 1ml Emulsion ([5]; 48h): 43
Number of Organisms in 1ml Emulsion [5, 11]: 1.5 x 10^4

Δ⁸-THC
duration of the reduction of IOP [6]: long-lasting
IOP ([6]; right eye): dramatically reduces the IOP
duration of the reduction of IOP [7]: long-lasting
IOP ([7]; right eye): dramatically reduces the IOP

CC(C)(O)C(Cl)(Cl)Cl [Chlorbutol]
compliance with B.P. requirements [8, 12]: did not meet the B.P. requirements
preservative protection [8, 12]: No total preservative protection was achieved

N=C(NCCCCCCNC(=N)NC(=N)Nc1ccc(Cl)cc1)NC(=N)Nc1ccc(Cl)cc1 [CHL, Chlorhexidine gluconate]
Number of Organisms in 1ml Emulsion [1, 11]: 3.5 x 10^6
Number of Organisms in 1ml Emulsion ([2]; 24h): >600
Number of Organisms in 1ml Emulsion ([2]; 48h): 433
Number of Organisms in 1ml Emulsion [2, 11]: 0.9 x 10^6
Number of Organisms in 1ml Emulsion ([3]; 48h): 5 x 10^6
Number of Organisms in 1ml Emulsion [3, 11]: 5.5 x 10^6
Number of Organisms in 1ml Emulsion ([4]; 24h): 10^7
Number of Organisms in 1ml Emulsion ([4]; 48h): 10^7
Number of Organisms in 1ml Emulsion [4, 11]: 4.2 x 10^6
Number of Organisms in 1ml Emulsion ([5]; 24h): 38
Number of Organisms in 1ml Emulsion ([5]; 48h): 54

CCCCCCC(C)(C)c1cc(O)c2c(c1)OC(C)(C)[C@H]1CC=C(CO)C[C@H]21 [HU-211]
decrease of IOP in the contralateral eye ([9]; Group I): about 11.4%
decrease of IOP in the contralateral eye ([9]; Group II): ~12.1%
time until which the decrease in IOP persisted ([9]; treated eye, percentage of IOP change from basal level (Fig. 14)): about 11 hours
time after which basal IOP levels were resumed [9, 13]: about 11 hrs
time for which the decrease in IOP lasted [9, 13]: about 6 hrs
IOP ([9]; treated right eye, single dose of 50µl of 0.1% (w/v) HU-211 emulsion): dramatic decrease in IOP
HU-211 concentration ([10]; 8 months at 4°C, 25°C, 30°C and 37°C): essentially no change
HU-211 concentration ([10]; storage at 50°C): marked decrease in concentration

C[CH2][Hg][S]c1ccccc1C(=O)O [THI, Thimerosal]
maintenance of total killing ([1]; S. aureus, after 48 hours): contamination was noted
preservative protection ([2]; at 24h): not able to protect totally
maintenance of total killing ([4]; after 48 hours): contamination was noted
preservative effect compared with the other tested preservatives ([8]; 0.01% Thimerosal vs 0.02% benzalkonium chloride and 0.05% chlorhexadiene gluconate): much better preservative effect
